Where a SMILES comes first, the peptide text is derived from it.
Tests used:
Assay type in all cases: in vivo
[1] = tested on: Male ddy mice; assay: Effect on hyperlocomotion induced by thyrotropin releasing hormone (TRH); details: for Activity counts (frequency per 60 min): Mean ± S.E.: 30 min before TRH 5 mg/kg i.p., control 1215 ± 114; for Effect on hyperlocomotion induced by TRH (in words): mice, s.c.
Experimental: Effect on hyperlocomotion induced by thyrotropin releasing hormone (TRH)
Male ddy mice (weighing 18 to 24.5 g) were used. The mice were placed into a transparent acrylic resin cage (26×37×11 cm) installed on Animex meter. Before experiment, the mice were allowed to habituate for 2 hours in the cage to fully lower the activity of the mice. After the completion of habituation, peptide A, peptide B or a diluent (physiological saline containing 1 mg/ml of sodium hydrogencarbonate) serving as a control was subcutaneously given to the mice. Thirty minutes thereafter, 5 mg/kg of TRH was intraperitoneally given to the animals. The activity counts during the period of 60 minutes following the administration of TRH was measured. Student's t-test was resorted to for statistical treatment.

[2] = tested on: Male ddy mice; assay: Effect on climbing behavior induced by apomorphine (Pharmacological Test 2); set-up: key to Average: Mean ± S.E. (total of 7 scores), climbing behavior: sum of 7 scores; 0 = all four legs on floor, 2 = ≥3 legs on rods; details: for Average: Mean ± S.E. (total of 7 scores), climbing behavior: 30 min before apomorphine 0.75 mg/kg s.c., control 9.8 ± 0.7; for Effect on apomorphine-induced climbing behavior (in words): mice, s.c.
Experimental: (§1) Effect on climbing behavior induced by apomorphine
Male ddy mice (weighing 20 to 30 g) were used, with 10 mice in each group. Each mouse was placed into a cylindrical cage, 12 cm in diameter and 14 cm in height, made up of vertical rods of 2 mm in diameter spaced apart at a distance of 10 mm in a circular arrangement. The mouse was allowed to stand therein for 2 hours. Peptide A, peptide B, CCK-8 or, as a control, the above-mentioned diluent was subcutaneously given to the animal, and 30 minutes later, 0.75 mg/kg of apomorphine was subcutaneously given. […] The test was carried out in soundproof compartments.
(§2) 0: All the four legs are on the floor.
(§3) 2: At least three legs are on rods.
Student's t-test was resorted to for statistical treatment.

[3] = tested on: male Wister rats; assay: Effect on metabolism of amine in the brain; details: 1 mg/kg s.c., 1 hour after administration
Experimental: Effect on metabolism of amine in the brain
Unfasted male Wister rats (weighing 180 to 220 g) were used. Peptide A or peptide B was subcutaneously given to the animal at a dose of 1 mg/kg, the head was irradiated with microwave 1 hour thereafter, and amine metabolite was extracted from the brain. First, removed tissues were homogenized with 1M formic acid and centrifuged at 20,000×g for 20 minutes, and the supernatant (1 ml) was shaken with 5 ml of ethyl acetate. The 3,4-dihydroxyphenylacetic acid (DOPAC), homovanillic acid (HVA) and 5-hydroxyindoleacetic acid (5-HIAA) in the ethyl acetate layer were analyzed by high-performance liquid chromatography under the following conditions. Chemcosorb, 5-ODS, 20 cm×4.6 mm I.D. was used for a separating column, and a mobile phase (0.1M KH2 PO4 (pH 5.0)-5 mM EDTA-2Na-5% acetonitrile) was passed through the colunn at a flow rate of 1 ml/min. The electrochemical detector was set to an oxidation potential of +0.8 V.

[4] = tested on: male Wister rats; assay: Effect on yawning behavior induced by apomorphine; details: for Number of yawns (average): 30 min before apomorphine 0.03 mg/kg s.c., counted 30 min, control 4.5; for Effect on yawning behavior induced by apomorphine (in words): rats, s.c.
Experimental: Effect on yawning behavior
Male Wister rats (weighing 200 to 300 g) were used, with 10 rats in each group. The rat was placed into a plastics cage (17×24×12 cm) with a floor mat and was then habituated for 30 minutes. Peptide A, peptide B, CCK-8 or the above-mentioned diluent serving as a control was subcutaneously given to the animal. Thirty minutes thereafter, 0.03 mg/kg of apomorphine was subcutaneously given to the animal. The number of yawns induced by apomorphine was counted during a period of 30 minutes following administration of apomorphine. The test was conducted in a soundproof compartment for each animal. Wilcoxon rank-sum test was resorted to for statistical treatment.

[5] = tested on: male Wister rats; assay: Effect on the fixed ratio (FR20) responding in rats; details: s.c., 15 min before 20 min session, dose giving count 50 with control as 100
Experimental: Effect on the fixed ratio responding in rats
The test was conducted according to the method described in Ahlenius S. and Engel J., Eur. J. Pharm., Vol. 15, 187-192 (1971).
Male Wister rats (weighing 240 to 320 g) were placed into Skinner box (product of Bil-Medika Co., Ltd., Japan, adapted to give a feed when a lever within the box is pressed) and made to learn how to take the food. In this test, one feed was given to the rats when the lever was pressed 20 times, i.e., fixed ratio (FR) 20. The rats showing stable FR20 response were divided into groups each including four rats.
Physiological saline (containing 1 mM of sodium hydrogencarbonate) containing a specified amount of a test compound was subcutaneously given to the rats of one group in a volume of 0.1 ml/100 g. (Physiological saline containing the above-mentioned amount of sodium hydrogencarbonate only was given to the control group). Fifteen minutes after the administration, the test animals were placed in the Skinner box, and the number of times the animals took the feed for 20 minutes was counted. The dose at which the count gained by the group of animals was 50, namely, ED50 value, was determined, with the count gained by the control group calculated as 100. The same procedure as above was repeated with use of the other test compounds.

[6] = tested on: Male ICR mice; assay: Inhibitory effect on hyperlocomotion induced by administration of methylphenidate
Experimental: Inhibitory effect on hyperlocomotion induced by administration of methylphenidate
Male ICR mice (weighing 24 to 30 g) were divided into groups, each including 10 mice. To one group of mice were subcutaneously given 10 mg/kg of methylphenidate and 0.1 ml/10 g of a saline solution of a specified amount of a test compound and 1 mM of sodium hydrogencarbonate. One hour after the administration, the test animals were checked for hyperlocomotion, which was measured with use of a device for measuring locomotion of small animals (wherein the motion of an animal shifts the center of graavity of the device to actuate a microswitch for the measurement of the amount of motion, see Folia Pharmacologica Japonica, 74, 629-639 (1978). For a control group, the same procedure as above was repeated except that the saline solution given was free from any test compound. The concentration of the test compound at which the result achieved by the group of animals was 50, namely, ED50 value, was determined, with the measurement obtained by the control group calculated as 100. The other compounds were tested in the same manner as above.

[7] = tested on: Male ddy mice; assay: Effect on climbing behavior induced by apomorphine (Pharmacological Test 7); set-up: key: sum of 7 scores; each 0 = four legs on floor, 2 = ≥3 legs on rods; details: control 9.8 ± 0.7
Experimental: as §1
Male ddy mice (weighing 20 to 30 g) were used, with 10 mice in each group. Each mouse was placed into a cylindrical cage, 12 cm in diameter and 14 cm in height, made up of vertical rods of 2 mm in diameter spaced apart at a distance of 10 mm in a circular arrangement. The mouse was allowed to stand therein for 2 hours. Physiological saline containing a specified amount of a test compound (and 1 mM of sodium hydrogencarbonate) was subcutaneously given to one group of mice in a volume of 1 ml/10 g. (The same dose of saline only was given to a control group). […] The test was carried out in soundproof compartments.
as §2, §3
The other compounds were tested in the same manner as above. The test was carried out in soundproof compartments. Student's t-test was resorted to for statistical treatment.

Row | Compound | Activity counts (frequency per 60 min): Mean ± S.E. ([1]; 0.1 mg/kg s.c.) [frequency per 60 min] | Activity counts (frequency per 60 min): Mean ± S.E. ([1]; 0.3 mg/kg s.c.) [frequency per 60 min] | Effect on hyperlocomotion induced by TRH (in words) [1] | Average: Mean ± S.E. (total of 7 scores), climbing behavior ([2]; 0.01 mg/kg s.c.) | Average: Mean ± S.E. (total of 7 scores), climbing behavior ([2]; 0.1 mg/kg s.c.) | Average: Mean ± S.E. (total of 7 scores), climbing behavior ([2]; 1 mg/kg s.c.) | Effect on apomorphine-induced climbing behavior (in words) [2] | Increase of DOPAC content in hypothalamus [3] | Influence on content of metabolite (DOPAC, HVA, 5-HIAA) in frontal cortex, limbic forebrain and striatum [3] | Number of yawns (average) ([4]; 1 mg/kg s.c.) | Effect on yawning behavior induced by apomorphine (in words) [4] | other results
1 | CSCC[C@H](NC(=O)[C@H](Cc1ccc(OS(=O)(=O)O)cc1)NC(=O)[C@H](CC(=O)O)NC(=O)CCCC(=O)O)C(=O)NCC(=O)N[C@@H](Cc1c[nH]c2ccccc12)C(=O)N[C@@H](CCSC)C(=O)N[C@@H](CC(=O)O)C(=O)N[C@@H](Cc1ccccc1)C(N)=O [Peptide A, Glt--Asp--Tyr(SO 3 H)--Met--Gly--Trp--Met--Asp--Phe--NH2] | 936 ± 115 | 613 ± 114 | inhibit the hyperlocomotion induced by TRH | 8.6 ± 0.6 | 5.3 ± 0.5 | 4.5 ± 1.0 | inhibit the climbing behavior | about 60% | Neither of peptide A and peptide B was found to influence | 0 | inhibit the yawning behavior induced by apomorphine | Activity counts (frequency per 60 min): Mean ± S.E. ([1]; 1 mg/kg s.c.): 148 ± 34 frequency per 60 min; Average: Mean ± S.E. (total of 7 scores), climbing behavior ([2]; 0.03 mg/kg s.c.): 7.9 ± 0.6; Average: Mean ± S.E. (total of 7 scores), climbing behavior ([2]; 0.3 mg/kg s.c.): 5.1 ± 0.7; Number of yawns (average) ([4]; 0.3 mg/kg s.c.): 1.5
2 | CSCC[C@H](NC(=O)[C@H](Cc1ccc(OS(=O)(=O)O)cc1)NC(=O)[C@H](CC(=O)O)NC(=O)[C@@H]1CCC(=O)N1)C(=O)NCC(=O)N[C@@H](Cc1c[nH]c2ccccc12)C(=O)N[C@@H](CCSC)C(=O)N[C@@H](CC(=O)O)C(=O)N[C@@H](Cc1ccccc1)C(N)=O [Peptide B, pGlu--Asp--Tyr(SO3 H)--Met--Gly--Trp--Met--Asp--Phe--NH2] | 601 ± 78 | 626 ± 143 | inhibit the hyperlocomotion induced by TRH | 8.7 ± 0.8 | 5.4 ± 0.8 | 4.7 ± 1.1 | inhibit the climbing behavior | about 60% | Neither of peptide A and peptide B was found to influence | 1.0 | inhibit the yawning behavior induced by apomorphine | Activity counts (frequency per 60 min): Mean ± S.E. ([1]; 0.03 mg/kg s.c.): 1009 ± 165 frequency per 60 min
3 | CSCC[C@H](NC(=O)[C@H](Cc1ccc(OS(=O)(=O)O)cc1)NC(=O)CCC(=O)O)C(=O)NCC(=O)N[C@@H](Cc1c[nH]c2ccccc12)C(=O)N[C@@H](CCSC)C(=O)N[C@@H](CC(=O)O)C(=O)N[C@@H](Cc1ccccc1)C(N)=O [Peptide D, Suc--Tyr(SO3 H)--Met--Gly--Trp--Met--Asp--Phe--NH2] (HELM PEPTIDE1{[O=C(O)CCC(=O)[*:2]].[O=C([C@H](Cc1ccc(OS(=O)(=O)O)cc1)N[*:1])[*:2]].M.G.W.M.D.F.[am]}$$$$V2.0) | – | – | – | – | – | – | – | – | – | – | – | ED50, inhibition of FR20 responding [5]: 0.0102 mg/kg; Inhibitory effect on methylphenidate-induced hyperlocomotion (in words) ([6]; s.c.): especially high inhibitory effect; ED50, inhibition of methylphenidate-induced hyperlocomotion ([6]; s.c. with methylphenidate 10 mg/kg s.c., measured 1 hour after, 50 with control as 100): 0.0345 mg/kg; Average: Mean ± S.E. (total of 7 scores), climbing behavior ([7]; 0.1 mg/kg s.c.): 7.0 ± 0.3; Average: Mean ± S.E. (total of 7 scores), climbing behavior ([7]; 0.3 mg/kg s.c.): 5.9 ± 0.9; Average: Mean ± S.E. (total of 7 scores), climbing behavior ([7]; 1.0 mg/kg s.c.): 4.5 ± 1.0
